Source: patent US11000514B2, “Antifungal compounds” (Duke University, priority 2014, dated 2021)

How the values were obtained:
Assay type in all cases: cell-based
C. neo = test: standardized in vitro susceptibility test, C. neo; conditions: yes/no
Asp = test: standardized in vitro susceptibility test, Asp alone (MEC)
Asp/Caspo = test: standardized in vitro susceptibility test, Asp/Caspo; conditions: with Caspo
Candida w/ FLu. = test: standardized in vitro susceptibility test, Candida w/ FLu.; conditions: with FLu.; yes/no

| Structure (SMILES) | Active C. neo (C. neo) | Active Asp alone (MEC) (Asp; yes/no) | Active Asp Caspo (Asp/Caspo; yes/no) | Active Candida w/ FLu. (Candida w/ FLu.) | Active Asp Caspo (Asp/Caspo; concentration) [µg/mL] | Active Asp alone (MEC) (Asp; MEC concentration) |
| --- | --- | --- | --- | --- | --- | --- |
| CO[C@H]1C[C@@H](C)C/C(C)=C/[C@@H](C/C=C/c2ccc(C(=O)O)cc2)C(=O)C[C@H](O)[C@@H](C)[C@@H](/C(C)=C/[C@@H]2CC[C@@H](O)[C@H](OC)C2)OC(=O)[C@@H]2CCCCN2C(=O)C(=O)[C@]2(O)O[C@H]1[C@@H](OC)C[C@H]2C [Compound 2] | yes | yes | Yes | no | – | – |
| CCCC/C=C/C[C@@H]1/C=C(\C)C[C@H](C)C[C@H](OC)[C@H]2O[C@@](O)(C(=O)C(=O)N3CCCC[C@H]3C(=O)O[C@H](/C(C)=C/[C@@H]3CC[C@@H](O)[C@H](OC)C3)[C@H](C)[C@@H](O)CC1=O)[C@H](C)C[C@@H]2OC [Compound 3] | yes | no | yes | yes | 4 | – |
| CCC(C)C/C=C/C[C@@H]1/C=C(\C)C[C@H](C)C[C@H](OC)[C@H]2O[C@@](O)(C(=O)C(=O)N3CCCC[C@H]3C(=O)O[C@H](/C(C)=C/[C@@H]3CC[C@@H](O)[C@H](OC)C3)[C@H](C)[C@@H](O)CC1=O)[C@H](C)C[C@@H]2OC (some centres unmarked) [Compound 4] | yes | no | yes | yes | 8 | – |
| CO[C@H]1C[C@@H](C)C/C(C)=C/[C@@H](C/C=C/CC(=O)O)C(=O)C[C@H](O)[C@@H](C)[C@@H](/C(C)=C/[C@@H]2CC[C@@H](O)[C@H](OC)C2)OC(=O)[C@@H]2CCCCN2C(=O)C(=O)[C@]2(O)O[C@H]1[C@@H](OC)C[C@H]2C [Compound 5] | yes | yes | yes | yes | 1 | (8 ug/mL) |
